Measured values as given in patent publication US6884796B2, “Meiosis regulating compounds” (NovoNordisk A/S, priority 1998, dated 2005).

How the values were obtained:
[1] = system: naked oocytes (NO); assay: Agonistic oocyte assay: germinal vesicle breakdown and polar body formation in naked oocytes cultured in Hx-medium; format: cell-based, mice; details: 10 mikroM; for mean % GVB / mean % PB: naked oocytes (NO) cultured in vitro for 24 hours in Hx-medium; for mean Relative Effect: naked oocytes (NO), 24 hours, indexed: control = 0, FF-MAS = 100
Procedure: An agonistic oocyte assay can be performed as follows:
Oocytes were obtained from immature female mice (C57BU6J x DBA/2J F1, Bomholtgaard, Denmark) weighing 13-16 grams, that were kept under controlled temperature (20-22° C.), light (lights on 06.00-18.00) and relative humidity (50-70%). The mice received an intra-peritoneal injection of 0.2 ml gonadotropins (Gonal-F, Serono) containing 20 IU FSH and 48 hours later the animals were killed by cervical dislocation.
The ovaries were dissected out and the oocytes were isolated in Hx-medium (see below) under a stereo microscope by manual rupture of the follicles using a pair of 27 gauge needles. Spherical oocytes displaying an intact germinal vesicle (hereinafter designated GV) were divided in cumulus enclosed oocytes (hereinafter designated CEO) and naked oocytes (hereinafter designated NO) and placed in a-minimum essential medium (α-MEM without ribonucleosides, Gibco BRL, Cat. No. 22561) supplemented with 3 mg/ml bovine serum albumin (BSA, Sigma Cat. No. A-7030), 5 mg/ml human serum albumin (HSA, Statens Seruminstitute, Denmark), 0.23 mM pyruvate (Sigma, Cat. No S-8636), 2 mM glutamine (Flow Cat. No. 16-801), 100 IU/ml penicillin and 100 μg/ml streptomycin (Flow, Cat No. 16-700). This medium was supplemented with 3 mM hypoxanthine (Sigma Cat. No. H-9377) and designated Hx-medium.
The oocytes were rinsed three times in Hx-medium and oocytes of uniform size were divided into groups of CEO and NO. CEO and NO were cultured in 4-well multidishes (Nunclon, Denmark) in which each well contained 0.4 ml of Hx-medium. One control well (i.e., 35-45 oocytes cultured in identical medium with no addition of test compound) was always cultured simultaneously with 3 test wells (35-45 oocytes per well supplemented with test compound).
The oocytes were cultured in a humidified atmosphere of 5% CO2 in air for 24 hours at 37° C. By the end of the culture period, the number of oocytes with germinal vesicle (hereinafter designated GV), germinal vesicle breakdown (hereinafter designated GVB) and polar bodies (hereinafter designated PB), respectively, were counted using a stereomicroscope (Wildt, Leica MZ 12). The percentage GVB, defined as percentage of oocytes undergoing GVB per total number of oocytes in that well, was calculated as: % GVB=(number of GVB+number of PB/total number oocytes)×100.
The % PB was defined as percentage of oocytes displaying one extruded polar body per total number of oocytes in that well.
The effect of the tested compounds has been indexed against control level and 4,4-dimethyl-5α-cholesta-8,14,24-trien-3β-ol (hereinafter designated FF-MAS) where controls and FF-MAS are indexed to an effect of 0 and 100, respectively. The relative effect of the tested compound is calculated as follows: Relative effect=((test GVB %−control GVB %)/(FF-MAS GVB %−control GVB %))×100. Results

[2] = system: naked oocytes (NO); details: Byskov et al. Nature 374 (1995), 559-562; cited from earlier work

SMILES	melting point [°C]	mean % GVB [1] [%]	mean % PB [1] [%]	mean Relative Effect [1]	induction of meiosis in NO in vitro [2]
COC(=O)CC[C@@H](C)[C@H]1CC[C@H]2C3=CC=C4C(C)(C)[C@@H](O)CC[C@]4(C)[C@H]3CC[C@]12C	124 to 128				
C[C@H](CCC(=O)NC(C)(C)C)[C@H]1CC=C2C3=C(CC[C@@]21C)[C@@]1(C)CC[C@H](O)C(C)(C)[C@@H]1CC3	171 to 176				
C[C@H](CCC(=O)O)[C@H]1CC[C@H]2C3=CC=C4C(C)(C)[C@@H](O)CC[C@]4(C)[C@H]3CC[C@]12C	210 to 213				
CC(=O)NCCC[C@@H](C)[C@H]1CC=C2C3=C(CC[C@@]21C)[C@@]1(C)CC[C@H](O)C(C)(C)[C@@H]1CC3	219 to 221				
C[C@H](CCC(=O)OC1CCCCC1)[C@H]1CC=C2C3=C(CC[C@@]21C)[C@@]1(C)CC[C@H](O)C(C)(C)[C@@H]1CC3	130 to 132				
C[C@H](CCCC(C(=O)O)C(=O)O)[C@H]1CC=C2C3=C(CC[C@@]21C)[C@@]1(C)CC[C@H](O)C(C)(C)[C@@H]1CC3	188 to 190				
C[C@H](CCC(=O)O)[C@H]1CC=C2C3=C(CC[C@@]21C)[C@@]1(C)CC[C@H](O)C(C)(C)[C@@H]1CC3 [Example 4, 3β-Hydroxy-4,4-dimethyl-5α-chola-8,14-dien-24-oic acid]		10.5	3.5	−10	
CC(C)C(=O)CC[C@@H](C)[C@H]1CC=C2C3=C(CC[C@@]21C)[C@@]1(C)CC[C@H](O)C(C)(C)[C@@H]1CC3 [Example 6, 3β-Hydroxy4,4-dimethyl-5α-cholesta-8,14-dien-24-one]		88	11	110	
C[C@H](CCC(=O)Nc1ccccc1)[C@H]1CC=C2C3=C(CC[C@@]21C)[C@@]1(C)CC[C@H](O)C(C)(C)[C@@H]1CC3 [Example 10, 3β-Hydroxy-4,4-dimethyl-5α-chola-8,14-dien-24-oic acid-N-phenyl amide]		10	3	−10	
Cc1ccc(C[C@@H](C)[C@H]2CC=C3C4=C(CC[C@@]32C)[C@@]2(C)CC[C@H](O)C(C)(C)[C@@H]2CC4)cc1 [Example 21, (20R)-4,4,20-Trimethyl-21-(4-methylphenyl)-5α-pregna-8,14-dien-3δ-ol]		82	29.5	98	
C[C@H](CC1CCCCC1)[C@H]1CC=C2C3=C(CC[C@@]21C)[C@@]1(C)CC[C@H](O)C(C)(C)[C@@H]1CC3 [Example 23, (20R), 4,20-Trimethyl-21-(cyclohexyl)-5α-pregna-8,14-dien-3β-ol]		73.5	21.5	98	
C=C(C)CCC[C@@H](C)[C@H]1CC=C2C3=C(CC[C@@]21C)[C@@]1(C)CC[C@H](O)C(C)(C)C1CC3 (stereo partly drawn) [Example 33, 4,4-Dimethylcholest-8,14,25-trien-3β-ol]		70	14.5	105	
CC(C)=CCC[C@@H](C)[C@H]1CC=C2C3=C(CC[C@@]21C)[C@@]1(C)CC[C@H](O)C(C)(C)[C@@H]1CC3 [FF-MAS, 4,4-dimethyl-5α-cholesta-8,14,24-trien-3β-ol, reference compound]		86.1	28.5	100	induce meiosis

Second part, led by results:

melting point [°C]	SMILES	mean % GVB [1] [%]	mean % PB [1] [%]	mean Relative Effect [1]	induction of meiosis in NO in vitro [2]
156 to 157	COC(=O)CC[C@@H](C)[C@H]1CC=C2C3=C(CC[C@@]21C)[C@@]1(C)CC[C@H](O)C(C)(C)[C@@H]1CC3				
233 to 235	C[C@H](CCC(N)=O)[C@H]1CC=C2C3=C(CC[C@@]21C)[C@@]1(C)CC[C@H](O)C(C)(C)[C@@H]1CC3				
178 to 180	C[C@H](CCCNc1ccccc1)[C@H]1CC=C2C3=C(CC[C@@]21C)[C@@]1(C)CC[C@H](O)C(C)(C)[C@@H]1CC3				
122 to 124	CCOC(=O)CC[C@@H](C)[C@H]1CC=C2C3=C(CC[C@@]21C)[C@@]1(C)CC[C@H](O)C(C)(C)[C@@H]1CC3				
114 to 115	C[C@H](CCCOCc1ccccc1)[C@H]1CC=C2C3=C(CC[C@@]21C)[C@@]1(C)CC[C@H](O)C(C)(C)[C@@H]1CC3				
118 to 119	C[C@H](CCC(=O)OCc1ccccc1)[C@H]1CC=C2C3=C(CC[C@@]21C)[C@@]1(C)CC[C@H](O)C(C)(C)[C@@H]1CC3				
183 to 185	CC(=O)CC[C@@H](C)[C@H]1CC=C2C3=C(CC[C@@]21C)[C@@]1(C)CC[C@H](O)C(C)(C)[C@@H]1CC3				
